Results from patent publication US20170239323A1, “ORITAVANCIN FORMULATIONS” (The Medicines Company, priority 2016, published 2017).
Read-outs that look alike come from different tables or passages of the source.

How the values were obtained:
[1] = Dilution in Hank's Balanced Salt Solution (HBSS, plasma surrogate): pH and visual observations; format: physicochemical; conditions: for time at which oritavancin started to fall out of solution: repeat with material 24 hours after reconstitution
Description: Reconstituting Orbactiv 400 mg (Oritavancin) in 20% w/v aqueous HPCD then diluting in Hank's Balanced Salt Solution (HBSS). 2.641 g of HPCD was dissolved in 13.205 mL of water to make a 20% w/v solution (pH=6.70). Eight (8) mL of the 20% w/v solution was added to a 400 mg vial of Orbactiv for a target oritavancin concentration of 50 mg/mL. […] A 1.5 mL aliquot of 50 mg/mL was removed from the vial and placed in a small glass vial and pH measured. Diluted 2 mL of 50 mg/mL oritavancin solution in 8 mL of HBSS. Visual observations and pH were recorded. (Table 12).
HBSS was used as a plasma surrogate in this experiment. Oritavancin at either 5 or 10 mg/mL precipitated from solution at 2 hours in HBSS. This experiment was repeated with the same material 24 hours later and observed over shorter time intervals. Diluted […] in a small glass vial to make a 10 mg/mL solution. Diluted […] in a small glass vial to make a 5 mg/mL solution. Solutions were observed and pH was tested every 0.25 hrs. (Table 14, Table 15).

[2] = radiolabeled PK study ADME-rpt-7-053r95; cited from earlier work
[3] = Pharmacokinetics in ABSSSI patients after single 1200 mg IV oritavancin (ORBACTIV) in 1000 mL D5W; format: in vivo, human; conditions: plasma; for AUC(0-t) / half-life: iv, 1200 mg
Description: Oritavancin (as ORBACTIV®) was evaluated in double-blind, controlled ABSSSI clinical trials, which included 976 adult patients treated with a single 1200 mg intravenous dose of oritavancin in 1000 mL D5W. The formulation was prepared by adding 40 mL of sterile water for injection (WFI) to each of three 400 mg vials of ORBACTIV® to provide a 10 mg/mL solution per vial. Each vial was gently swirled to avoid foaming and ensure that all ORBACTIV powder was completely reconstituted in solution. […] The three solutions were combined and diluted to 1000 mL total volume with 5% dextrose in sterile water (D5W), to give a 1.2 mg/mL solution of oritavancin. The formulation was administered to each subject intravenously over 3 hours, and PK was measured (Table 20). The median age of patients treated with oritavancin was 45.6 years, ranging between 18 and 89 years of age with 8.8%≧65 years of age. Patients treated with oritavancin were predominantly male (65.4%), 64.4% were Caucasian, 5.8% were African American, and 28.1% were Asian. Safety was evaluated for up to 60 days after dosing.

[4] = Reconstituted oritavancin/HPCD solution diluted in 0.9% saline: pH and observation for precipitation; format: physicochemical; conditions: for pH: RT
[5] = Table 12: 20% w/v HPCD reconstitution diluted in HBSS: oritavancin 10 mg/mL, HPCD 4% w/v, 0 hr
[6] = Table 12: 20% w/v HPCD reconstitution diluted in HBSS: oritavancin 10 mg/mL, HPCD 4% w/v, 0.5 hr
[7] = Table 12: 20% w/v HPCD reconstitution diluted in HBSS: oritavancin 10 mg/mL, HPCD 4% w/v, 1 hr
[8] = Table 12: 20% w/v HPCD reconstitution diluted in HBSS: oritavancin 10 mg/mL, HPCD 4% w/v, 2 hr
[9] = Table 14: repeat with 24-hour-old 20% w/v HPCD reconstitution diluted in HBSS: oritavancin 10 mg/mL, HPCD 2% w/v, 0 hr
[10] = Table 14: repeat with 24-hour-old 20% w/v HPCD reconstitution diluted in HBSS: oritavancin 10 mg/mL, HPCD 2% w/v, 0.25 hr
[11] = Table 15: 24-hour-old 20% w/v HPCD reconstitution diluted in HBSS: oritavancin 5 mg/mL, HPCD 2% w/v, 0 hr
[12] = Table 15: 24-hour-old 20% w/v HPCD reconstitution diluted in HBSS: oritavancin 5 mg/mL, HPCD 2% w/v, 0.25 hr
[13] = Table 15: 24-hour-old 20% w/v HPCD reconstitution diluted in HBSS: oritavancin 5 mg/mL, HPCD 2% w/v, 0.5 hr
[14] = Table 15: 24-hour-old 20% w/v HPCD reconstitution diluted in HBSS: oritavancin 5 mg/mL, HPCD 2% w/v, 0.75 hr
[15] = Table 15: 24-hour-old 20% w/v HPCD reconstitution diluted in HBSS: oritavancin 5 mg/mL, HPCD 2% w/v, 1 hr
[16] = mean, ABSSSI subjects, single 1200 mg IV dose over 3 hours (n = 297)
[17] = 20% w/v HPCD reconstitution diluted to 5 mg/mL in 0.9% saline, rechecked one month later
[18] = 50% HPCD reconstitution diluted to 5 mg/mL in 0.9% saline, rechecked one month later

SMILES: CN[C@H](CC(C)C)C(=O)N[C@H]1C(=O)N[C@@H](CC(N)=O)C(=O)N[C@H]2C(=O)N[C@H]3C(=O)N[C@H](C(=O)N[C@H](C(=O)O)c4cc(O)cc(O)c4-c4cc3ccc4O)[C@H](O[C@H]3C[C@](C)(N)[C@@H](O)[C@H](C)O3)c3ccc(c(Cl)c3)Oc3cc2cc(c3O[C@@H]2O[C@H](CO)[C@@H](O)[C@H](O)[C@H]2O[C@H]2C[C@](C)(NCc3ccc(-c4ccc(Cl)cc4)cc3)[C@@H](O)[C@H](C)O2)Oc2ccc(cc2Cl)[C@H]1O [Oritavancin]
- time at which oritavancin precipitated from solution ([1]; 5 mg/mL in HBSS (20% w/v HPCD reconstitution)): 2 h
- time at which oritavancin started to fall out of solution ([1]; 5 mg/mL in HBSS): ~1.5 h
- time at which oritavancin precipitated from solution ([1]; 10 mg/mL in HBSS (20% w/v HPCD reconstitution)): 2 h
- time at which oritavancin started to fall out of solution ([1]; 10 mg/mL in HBSS): 0.5 h
- time for which oritavancin remains in solution ([1]; 20% w/v aqueous HPCD reconstitution diluted into HBSS at 5 mg/mL): at least 1 hour
- Observations [1, 5]: Clear, colorless solution
- pH [1, 5]: 5.83
- Observations [1, 6]: Clear, colorless solution
- pH [1, 6]: 5.86
- Observations [1, 7]: Clear, colorless solution
- pH [1, 7]: 5.87
- Observations [1, 8]: Flocculent white precipitate
- pH [1, 8]: 5.92
- Observations [1, 9]: Clear, colorless solution
- pH [1, 9]: 6.19
- Observations [1, 10]: Clear, colorless solution
- pH [1, 10]: 6.21
- pH ([1]; Table 14: repeat with 24-hour-old 20% w/v HPCD reconstitution diluted in HBSS: oritavancin 10 mg/mL, HPCD 2% w/v, 0.5 hr): 6.30
- pH ([1]; Table 14: repeat with 24-hour-old 20% w/v HPCD reconstitution diluted in HBSS: oritavancin 10 mg/mL, HPCD 2% w/v, 0.75 hr): 6.33
- pH ([1]; Table 14: repeat with 24-hour-old 20% w/v HPCD reconstitution diluted in HBSS: oritavancin 10 mg/mL, HPCD 2% w/v, 1 hr): 6.38
- Observations [1, 11]: Clear, colorless solution
- pH [1, 11]: 6.39
- Observations [1, 12]: Clear, colorless solution
- pH [1, 12]: 6.47
- Observations [1, 13]: Clear, colorless solution
- pH [1, 13]: 6.50
- Observations [1, 14]: Clear, colorless solution
- pH [1, 14]: 6.59
- Observations [1, 15]: Clear, colorless solution
- pH [1, 15]: 6.61
- pH ([1]; Table 15: 24-hour-old 20% w/v HPCD reconstitution diluted in HBSS: oritavancin 5 mg/mL, HPCD 2% w/v, 1.25 hr): 6.63
- pH ([1]; Table 15: 24-hour-old 20% w/v HPCD reconstitution diluted in HBSS: oritavancin 5 mg/mL, HPCD 2% w/v, 1.5 hr): 6.71
- pH ([1]; Table 15: 24-hour-old 20% w/v HPCD reconstitution diluted in HBSS: oritavancin 5 mg/mL, HPCD 2% w/v, 1.75 hr): 6.76
- plasma AUC relative to whole blood AUC [2]: 1.59 ×
- whole blood AUC as percentage of plasma AUC [2]: 62.8%
- AUC ([3]; both sexes, human, intravenous, 1200 mg dose in man, read-out: plasma exposure (AUC) in man): ~2800 µg·h/mL
- AUC(0-t) ([3]; both sexes, human, mean, ABSSSI subjects, single 1200 mg IV dose over 3 hours (n = 297), read-out: AUC0-24): 1110 µg·h/mL
- AUC(0-t) ([3]; both sexes, human, mean, ABSSSI subjects, single 1200 mg IV dose over 3 hours (n = 297), read-out: AUC0-72): 1530 µg·h/mL
- half-life ([3]; both sexes, human, mean, ABSSSI subjects, single 1200 mg IV dose over 3 hours (n = 297), read-out: T1/2,α (converted)): 2.29 h
- half-life ([3]; both sexes, human, mean, ABSSSI subjects, single 1200 mg IV dose over 3 hours (n = 297), read-out: T1/2,β (converted)): 13.4 h
- half-life ([3]; both sexes, human, mean, ABSSSI subjects, single 1200 mg IV dose over 3 hours (n = 297), read-out: T1/2,γ (converted)): 245 h
- Vd ([3]; both sexes, human, mean, ABSSSI subjects, single 1200 mg IV dose over 3 hours (n = 297), read-out: Vss): 97.8 L
- AUC(0-inf) ([3]; both sexes, human, per Orbactiv Package Insert (Comparative Example 4): 1200 mg IV, D5W, 3 h infusion): 2800 µg·h/mL
- Cmax ([3]; both sexes, human, per Orbactiv Package Insert (Comparative Example 4): 1200 mg IV, D5W, 3 h infusion, read-out: Cmax): 138 µg/mL
- AUC0-∞ [3, 16]: 2800 µg·h/mL
- Cmax [3, 16]: 138 µg/mL
- pH ([4]; 20% w/v HPCD reconstitution diluted in 0.9% saline: oritavancin 5 mg/mL, HPCD 2% w/v, 0 hr): 4.17
- pH ([4]; 20% w/v HPCD reconstitution diluted in 0.9% saline: oritavancin 5 mg/mL, HPCD 2% w/v, 0.08 hr): 4.17
- pH ([4]; 20% w/v HPCD reconstitution diluted in 0.9% saline: oritavancin 5 mg/mL, HPCD 2% w/v, 0.5 hr): 4.17
- pH ([4]; 20% w/v HPCD reconstitution diluted in 0.9% saline: oritavancin 5 mg/mL, HPCD 2% w/v, 1 hr): 4.17
- pH ([4]; 20% w/v HPCD reconstitution diluted in 0.9% saline: oritavancin 5 mg/mL, HPCD 2% w/v, 24 hr): 4.17
- pH ([4]; 20% w/v HPCD reconstitution diluted in 0.9% saline: oritavancin 5 mg/mL, HPCD 2% w/v, 720 hr): 4.32
- appearance / precipitation ([4]; 20% w/v HPCD reconstitution diluted to 5 mg/mL in 0.9% saline, for 24 hours): remained clear and colorless without any precipitation
- appearance [4, 17]: clear and colorless
- pH change [4, 17]: increased slightly
- appearance / precipitation ([4]; 20% w/v HPCD reconstitution diluted to 6 mg/mL in 0.9% saline): remained clear and colorless without any visible precipitation
- time for which no precipitation was observed ([4]; 20% w/v HPCD reconstitution pH adjusted (up to 7), diluted to 5 mg/mL in 0.9% saline): at least 12 hours
- appearance ([4]; 20% w/v HPCD reconstitution, diluted to 5 mg/mL in 0.9% saline, pH 6.5 and above, for 24 hours): maintained clear and colorless
- appearance / precipitation ([4]; 50% HPCD reconstitution diluted to 5 mg/mL in 0.9% saline, for 24 hours): remained clear and colorless without any precipitation
- appearance [4, 18]: clear and colorless
- pH change [4, 18]: increased slightly
- pH ([4]; 50% w/v HPCD reconstitution diluted in 0.9% saline: oritavancin 5 mg/mL, HPCD 5% w/v, 0 hr): 4.14
- pH ([4]; 50% w/v HPCD reconstitution diluted in 0.9% saline: oritavancin 5 mg/mL, HPCD 5% w/v, 0.08 hr): 4.14
- pH ([4]; 50% w/v HPCD reconstitution diluted in 0.9% saline: oritavancin 5 mg/mL, HPCD 5% w/v, 0.5 hr): 4.14
- pH ([4]; 50% w/v HPCD reconstitution diluted in 0.9% saline: oritavancin 5 mg/mL, HPCD 5% w/v, 1 hr): 4.14
- pH ([4]; 50% w/v HPCD reconstitution diluted in 0.9% saline: oritavancin 5 mg/mL, HPCD 5% w/v, 24 hr): 4.15
- pH ([4]; 50% w/v HPCD reconstitution diluted in 0.9% saline: oritavancin 5 mg/mL, HPCD 5% w/v, 720 hr): 4.26
- time for which no precipitation was observed ([4]; 50% w/v HPCD reconstitution pH adjusted (up to 6.3), diluted to 5 mg/mL in 0.9% saline): at least 1 hour
- time for which no precipitation was observed ([4]; 50% w/v HPCD reconstitution pH adjusted (up to 7), diluted to 5 mg/mL in 0.9% saline): at least 12 hours
- appearance ([4]; 50% w/v HPCD reconstitution pH adjusted, diluted to 5 mg/mL in 0.9% saline, at 24 hours): Some discoloration
- appearance ([4]; pH 5.7): Some discoloration
- time for which solution maintains clarity ([4]; pH adjusted to pH 7 in saline using NaOH): at least 12 hours
- stability in solution ([4]; reconstituted in 20% or 50% w/v HPCD, diluted into saline at 5 mg/mL): does not fall out of solution for at least one month
